pKi: −log10 of the molar value.

The test can be described thus: Compound was evaluated for the binding affinity at 5- HT1A receptor.

As for `N=C(N)NN=Cc1c[nH]c2ccc(O)cc12` [(2E)-2-[(5-hydroxy-1H-indol-3-yl)methylene]hydrazinecarboximidamide], the pKi (in general, −log10 of the Ki, conventionally taken in molar units) was 7.20.

For the origin of these results see BindingDB's records for doi:10.1021/jm00013a009 (Sandoz Pharma, 1995).
